Assay results from ChEMBL document CHEMBL3751785, “Development and structural analysis of adenosine site binding tankyrase inhibitors” (Bioorg Med Chem Lett, 2016).

Legend:
[1] = molecular target: Poly [ADP-ribose] polymerase 2 (Homo sapiens, UniProt Q9UGN5); assay: Inhibition of human ARTD2 by fluorescence analysis
[2] = molecular target: T1, Protein mono-ADP-ribosyltransferase PARP3 (Homo sapiens, UniProt Q9Y6F1); assay: Inhibition of human ARTD3 by fluorescence analysis
T1 sequence (Q9Y6F1 whole entry): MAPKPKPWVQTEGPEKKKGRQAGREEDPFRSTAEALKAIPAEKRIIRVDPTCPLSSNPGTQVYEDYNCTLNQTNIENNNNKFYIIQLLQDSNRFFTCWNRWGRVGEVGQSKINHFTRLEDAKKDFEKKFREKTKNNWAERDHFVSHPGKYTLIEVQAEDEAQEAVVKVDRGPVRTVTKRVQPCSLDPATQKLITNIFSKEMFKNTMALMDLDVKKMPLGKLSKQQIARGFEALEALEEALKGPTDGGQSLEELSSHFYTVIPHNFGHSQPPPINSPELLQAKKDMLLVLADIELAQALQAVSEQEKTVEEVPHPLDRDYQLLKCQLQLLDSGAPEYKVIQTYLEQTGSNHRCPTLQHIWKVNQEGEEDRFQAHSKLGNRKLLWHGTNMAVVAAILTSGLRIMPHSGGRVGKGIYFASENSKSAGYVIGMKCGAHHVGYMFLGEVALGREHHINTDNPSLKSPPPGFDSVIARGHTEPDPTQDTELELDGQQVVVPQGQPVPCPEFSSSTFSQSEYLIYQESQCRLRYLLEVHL

[3] = molecular target: Protein mono-ADP-ribosyltransferase PARP4 (Homo sapiens, UniProt Q9UKK3); assay: Inhibition of human ARTD4 by fluorescence analysis
[4] = molecular target: T2, Protein mono-ADP-ribosyltransferase PARP10 (Homo sapiens, UniProt Q53GL7); assay: Inhibition of human ARTD10 by fluorescence analysis
T2 sequence (Q53GL7 whole entry): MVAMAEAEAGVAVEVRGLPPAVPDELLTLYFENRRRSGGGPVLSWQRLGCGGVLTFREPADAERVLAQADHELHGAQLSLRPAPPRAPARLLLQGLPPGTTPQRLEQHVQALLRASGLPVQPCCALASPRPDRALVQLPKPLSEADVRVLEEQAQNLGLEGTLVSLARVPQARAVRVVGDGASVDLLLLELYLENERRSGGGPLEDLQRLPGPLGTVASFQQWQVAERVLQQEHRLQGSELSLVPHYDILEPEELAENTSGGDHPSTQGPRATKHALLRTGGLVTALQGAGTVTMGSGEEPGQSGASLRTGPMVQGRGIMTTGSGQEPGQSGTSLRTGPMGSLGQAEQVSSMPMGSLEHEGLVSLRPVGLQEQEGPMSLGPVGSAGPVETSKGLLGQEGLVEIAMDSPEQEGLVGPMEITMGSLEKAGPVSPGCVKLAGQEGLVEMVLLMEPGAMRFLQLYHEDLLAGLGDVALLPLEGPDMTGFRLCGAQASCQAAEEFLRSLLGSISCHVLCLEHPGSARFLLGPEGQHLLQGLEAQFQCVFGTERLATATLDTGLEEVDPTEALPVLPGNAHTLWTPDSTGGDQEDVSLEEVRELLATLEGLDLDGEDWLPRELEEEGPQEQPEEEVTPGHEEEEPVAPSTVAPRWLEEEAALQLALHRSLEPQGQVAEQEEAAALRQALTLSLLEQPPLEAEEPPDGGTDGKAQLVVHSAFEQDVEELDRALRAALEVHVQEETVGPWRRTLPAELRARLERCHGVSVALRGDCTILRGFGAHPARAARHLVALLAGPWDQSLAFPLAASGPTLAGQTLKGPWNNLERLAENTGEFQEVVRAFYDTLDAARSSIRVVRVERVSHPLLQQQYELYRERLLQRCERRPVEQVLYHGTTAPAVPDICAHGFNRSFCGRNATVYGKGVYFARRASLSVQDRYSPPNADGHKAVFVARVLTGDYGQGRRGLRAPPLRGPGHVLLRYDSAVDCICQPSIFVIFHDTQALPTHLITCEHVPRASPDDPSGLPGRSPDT

[5] = molecular target: T3, Protein mono-ADP-ribosyltransferase PARP12 (Homo sapiens, UniProt Q9H0J9); assay: Inhibition of human ARTD12 by fluorescence analysis
T3 sequence (Q9H0J9 whole entry): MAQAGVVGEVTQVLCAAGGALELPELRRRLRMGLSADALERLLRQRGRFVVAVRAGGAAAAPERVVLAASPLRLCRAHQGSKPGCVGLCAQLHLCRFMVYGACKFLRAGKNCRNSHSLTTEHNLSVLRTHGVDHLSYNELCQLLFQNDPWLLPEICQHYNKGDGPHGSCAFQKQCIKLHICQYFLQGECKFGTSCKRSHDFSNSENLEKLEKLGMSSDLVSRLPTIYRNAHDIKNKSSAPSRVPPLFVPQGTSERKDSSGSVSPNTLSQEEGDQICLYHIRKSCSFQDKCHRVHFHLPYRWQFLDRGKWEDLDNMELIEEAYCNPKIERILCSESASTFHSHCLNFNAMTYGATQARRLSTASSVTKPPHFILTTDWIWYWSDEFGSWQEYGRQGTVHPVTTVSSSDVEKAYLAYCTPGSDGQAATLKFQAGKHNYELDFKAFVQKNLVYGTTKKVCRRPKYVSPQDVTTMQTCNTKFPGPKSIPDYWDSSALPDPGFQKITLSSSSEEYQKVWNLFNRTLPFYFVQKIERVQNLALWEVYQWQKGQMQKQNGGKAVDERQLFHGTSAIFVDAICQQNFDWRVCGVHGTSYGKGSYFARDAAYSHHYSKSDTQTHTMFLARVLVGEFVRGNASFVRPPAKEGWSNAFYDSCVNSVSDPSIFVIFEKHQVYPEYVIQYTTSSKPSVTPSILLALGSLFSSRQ

Sequence of Protein mono-ADP-ribosyltransferase PARP4 (Q9UKK3 whole entry): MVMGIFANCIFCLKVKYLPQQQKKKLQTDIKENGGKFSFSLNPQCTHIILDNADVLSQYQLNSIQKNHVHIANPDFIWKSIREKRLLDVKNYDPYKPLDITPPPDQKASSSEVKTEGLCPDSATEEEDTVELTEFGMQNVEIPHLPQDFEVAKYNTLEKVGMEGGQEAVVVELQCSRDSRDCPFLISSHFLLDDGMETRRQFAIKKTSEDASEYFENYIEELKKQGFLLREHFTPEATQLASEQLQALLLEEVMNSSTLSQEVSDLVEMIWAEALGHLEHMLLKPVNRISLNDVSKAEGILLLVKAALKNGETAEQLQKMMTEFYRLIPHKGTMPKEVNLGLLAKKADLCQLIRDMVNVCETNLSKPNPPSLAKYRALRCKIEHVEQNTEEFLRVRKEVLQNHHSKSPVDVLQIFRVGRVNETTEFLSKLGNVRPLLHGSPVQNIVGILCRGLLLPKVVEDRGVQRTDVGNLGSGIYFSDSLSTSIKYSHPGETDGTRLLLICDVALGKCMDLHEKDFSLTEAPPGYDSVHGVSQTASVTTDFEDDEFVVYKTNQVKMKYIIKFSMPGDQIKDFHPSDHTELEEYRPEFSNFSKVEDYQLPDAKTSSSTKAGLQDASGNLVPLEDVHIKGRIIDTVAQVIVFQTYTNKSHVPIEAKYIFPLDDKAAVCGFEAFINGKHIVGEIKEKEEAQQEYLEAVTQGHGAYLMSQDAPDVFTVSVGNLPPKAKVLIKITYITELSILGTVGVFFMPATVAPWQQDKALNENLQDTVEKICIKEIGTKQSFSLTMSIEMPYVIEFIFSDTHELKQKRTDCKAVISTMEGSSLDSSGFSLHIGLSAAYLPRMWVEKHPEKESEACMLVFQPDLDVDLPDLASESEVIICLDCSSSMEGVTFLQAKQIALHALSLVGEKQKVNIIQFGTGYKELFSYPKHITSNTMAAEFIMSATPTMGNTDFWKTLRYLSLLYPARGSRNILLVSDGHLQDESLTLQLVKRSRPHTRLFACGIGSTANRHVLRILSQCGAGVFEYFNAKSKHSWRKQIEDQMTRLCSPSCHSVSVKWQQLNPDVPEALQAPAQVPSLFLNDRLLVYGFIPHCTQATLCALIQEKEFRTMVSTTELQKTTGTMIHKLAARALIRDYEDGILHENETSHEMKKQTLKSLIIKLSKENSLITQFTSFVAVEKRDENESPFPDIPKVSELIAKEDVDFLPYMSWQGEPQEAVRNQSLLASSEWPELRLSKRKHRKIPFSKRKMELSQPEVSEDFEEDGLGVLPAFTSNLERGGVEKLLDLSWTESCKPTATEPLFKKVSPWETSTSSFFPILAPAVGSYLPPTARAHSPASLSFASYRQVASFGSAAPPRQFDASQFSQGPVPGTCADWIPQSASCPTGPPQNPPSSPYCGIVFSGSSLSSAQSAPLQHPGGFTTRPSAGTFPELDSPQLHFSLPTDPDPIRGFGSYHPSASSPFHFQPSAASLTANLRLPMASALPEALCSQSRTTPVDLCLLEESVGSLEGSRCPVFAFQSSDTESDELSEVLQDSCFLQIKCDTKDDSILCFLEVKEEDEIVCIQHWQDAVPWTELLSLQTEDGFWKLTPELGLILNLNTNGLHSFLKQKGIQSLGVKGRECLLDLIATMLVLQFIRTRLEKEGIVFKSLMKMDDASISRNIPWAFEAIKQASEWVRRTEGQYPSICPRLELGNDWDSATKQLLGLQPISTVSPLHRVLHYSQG
Sequence of Poly [ADP-ribose] polymerase 2 (Q9UGN5 whole entry): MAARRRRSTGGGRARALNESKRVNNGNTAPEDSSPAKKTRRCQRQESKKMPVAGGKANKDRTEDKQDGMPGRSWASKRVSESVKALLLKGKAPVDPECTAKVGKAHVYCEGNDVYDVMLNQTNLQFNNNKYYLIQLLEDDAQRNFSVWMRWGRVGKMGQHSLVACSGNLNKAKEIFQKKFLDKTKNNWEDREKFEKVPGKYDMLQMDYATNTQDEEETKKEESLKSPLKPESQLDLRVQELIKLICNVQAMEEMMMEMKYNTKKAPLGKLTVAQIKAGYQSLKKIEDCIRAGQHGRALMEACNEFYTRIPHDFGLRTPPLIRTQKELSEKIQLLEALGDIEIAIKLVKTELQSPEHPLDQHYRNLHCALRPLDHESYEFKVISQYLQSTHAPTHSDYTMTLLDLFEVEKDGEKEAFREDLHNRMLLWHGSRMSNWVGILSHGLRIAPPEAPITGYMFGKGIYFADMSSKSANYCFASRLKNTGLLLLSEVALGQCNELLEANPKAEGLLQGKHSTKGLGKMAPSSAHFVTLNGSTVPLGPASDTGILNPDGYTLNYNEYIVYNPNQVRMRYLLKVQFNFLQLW

**Q.** For `COc1ccc(C2(CNC(=O)c3ccc(NC(=O)c4ccco4)cc3Cl)CCOCC2)cc1`, which IC50 [1] is on record?
**A.** > 100 µM

**Q.** What about the IC50 [2] of the same compound?
**A.** > 100 µM

**Q.** What about the IC50 [3] of the same compound?
**A.** > 100 µM

**Q.** And the IC50 [4]?
**A.** > 10 µM

**Q.** And the IC50 [5]?
**A.** > 10 µM
